Patent US20070128217A1 (priority 2003, published 2007)

Assays:
[1] = system: antibodies in sera from SARS patients (sera 1a, 1b, 2, 6, 37, 62, London, SARS-yellow, SARS-green); type: binding, human; design: Binding of serum 6 to linear peptides of protein X1 of SARS-CoV Urbani / Binding of serum 37 to linear peptides of protein X1 of SARS-CoV Urbani / Binding of serum 6 to looped/cyclic peptide (PEPSCAN-ELISA) / Binding of serum 37 to looped/cyclic peptide (PEPSCAN-ELISA) / Binding of serum 37 to looped/cyclic peptides of protein X1 of SARS-CoV Urbani / Binding of serum 6 to linear peptides of protein X2 / Binding of serum 37 to linear peptides of protein X2 / Binding of serum 37 to looped/cyclic peptides of protein X2 of SARS-CoV Urbani / Binding of serum 6 to linear peptides of protein M of SARS-CoV Urbani / Binding of serum 37 to linear peptides of protein M of SARS-CoV Urbani / Binding of serum 6 to looped/cyclic peptides of protein M of SARS-CoV Urbani / Binding of serum 37 to looped/cyclic peptides of protein M of SARS-CoV Urbani / Binding of serum 6 to linear peptides of protein X3 of SARS-CoV Urbani / Binding of serum 37 to linear peptides of protein X3 of SARS-CoV Urbani / Binding of serum 37 to looped/cyclic peptides of protein X3 of SARS-CoV Urbani / Binding of serum 6 to linear peptides of protein X4 of SARS-CoV Urbani / Binding of serum 37 to linear peptides of protein X4 of SARS-CoV Urbani / Binding of serum 37 to looped/cyclic peptides of protein X4 of SARS-CoV Urbani / Binding of serum 6 to linear peptides of protein X5 of SARS-CoV Urbani / Binding of serum 37 to linear peptides of protein X5 of SARS-CoV Urbani / Binding of serum 37 to looped/cyclic peptides of protein X5 of SARS-CoV Urbani / Binding of serum 6 to linear peptides of protein N of SARS-CoV Urbani / Binding of serum 37 to linear peptides of protein N of SARS-CoV Urbani / Binding of serum 6 to linear peptide (PEPSCAN-ELISA) / Binding of serum 1a to looped/cyclic peptides of protein N of SARS-CoV Urbani / Binding of serum 1b to looped/cyclic peptides of protein N of SARS-CoV Urbani / Binding of serum 2 to looped/cyclic peptides of protein N of SARS-CoV Urbani / Binding of serum 6 to looped/cyclic peptides of protein N of SARS-CoV Urbani / Binding of serum 37 to looped/cyclic peptides of protein N of SARS-CoV Urbani / Binding of serum 62 to looped/cyclic peptides of protein N of SARS-CoV Urbani / Binding of serum London to looped/cyclic peptides of protein N of SARS-CoV Urbani / Binding of serum SARS-green to looped/cyclic peptides of protein N of SARS-CoV Urbani: unit not given here
[2] = system: control sera (pooled serum of ten healthy LUMC hospital workers; commercial negative donor pooled serum from the Dutch bloodbank); type: binding, human; design: Binding of Control serum LUMC to linear peptides / Binding of Control serum Blood-bank to linear peptides / Binding of Control serum LUMC to looped peptides / Binding of Control Serum Blood-Bank to Looped peptides / Binding of Control serum LUMC to linear peptides of the protein M of SARS-CoV Urbani / Binding of Control serum Blood-bank to linear peptides of the protein M of SARS-CoV Urbani / Binding of Control serum LUMC to looped peptides of the protein M of SARS-CoV Urbani / Binding of Control Serum Blood-Bank to Looped peptides of the protein M of SARS-CoV Urbani: unit not given here
[3] = system: rabbit serum obtained by immunizing a rabbit with the SARS-CoV strain Frankfurt 1; type: binding; design: Binding of a rabbit serum to linear peptides / Binding of a rabbit serum to looped peptides / Rabbit serum linear peptides / Rabbit serum looped peptides / Binding of a rabbit serum to linear peptides of protein N of SARS-CoV Urbani (Rabbit serum linear peptides) / Binding of a rabbit serum to looped/cyclic peptides of protein N of SARS-CoV Urbani (Rabbit serum looped peptides): unit not given here

Q: With TQITTDTGIENATFF as the sequence, how does the “Binding of serum 1a to linear peptides of protein X1 of SARS-CoV Urbani” value [1] read?
A: 0.7

Q: What about the “Binding of serum 1a to looped/cyclic peptides of protein X1 of SARS-CoV Urbani” value [1] of the same sequence?
A: 0.5

Q: What about the “Binding of serum 1b to linear peptides of protein X1 of SARS-CoV Urbani” value [1] of the same sequence?
A: 0.6

Q: And the “Binding of serum 1b to looped/cyclic peptides of protein X1 of SARS-CoV Urbani” value [1]?
A: 0.3

Q: And the “Binding of serum 2 to linear peptides of protein X1 of SARS-CoV Urbani” value [1]?
A: 0.5

Q: And the “Binding of serum 2 to looped/cyclic peptides of protein X1 of SARS-CoV Urbani” value [1]?
A: 0.2

Q: What about the “Binding of serum 6 to linear peptides of protein X1 of SARS-CoV Urbani” value [1] of the same sequence?
A: 0.6

Q: And the “Binding of serum 6 to looped/cyclic peptides of protein X1 of SARS-CoV Urbani” value [1]?
A: 0.3

Q: What about the “Binding of serum 37 to linear peptides of protein X1 of SARS-CoV Urbani” value [1] of the same sequence?
A: 0.7

Q: What about the “Binding of serum 37 to looped/cyclic peptides of protein X1 of SARS-CoV Urbani” value [1] of the same sequence?
A: 0.4

Q: What about the “Binding of serum 62 to linear peptides of protein X1 of SARS-CoV Urbani” value [1] of the same sequence?
A: 0.5

Q: What about the “Binding of serum 62 to looped/cyclic peptides of protein X1 of SARS-CoV Urbani” value [1] of the same sequence?
A: 0.5

Q: And the “Binding of serum London to linear peptides of protein X1 of SARS-CoV Urbani” value [1]?
A: 0.3

Q: And the “Binding of serum London to looped/cyclic peptides of protein X1 of SARS-CoV Urbani” value [1]?
A: 0.2

Q: And the “Binding of serum SARS-green to linear peptides of protein X1 of SARS-CoV Urbani” value [1]?
A: 0.7

Q: What about the “Binding of serum SARS-green to looped/cyclic peptides of protein X1 of SARS-CoV Urbani” value [1] of the same sequence?
A: 0.3

Q: What about the “Binding of serum SARS-yellow to linear peptides of protein X1 of SARS-CoV Urbani” value [1] of the same sequence?
A: 0.5

Q: What about the “Binding of serum SARS-yellow to looped/cyclic peptides of protein X1 of SARS-CoV Urbani” value [1] of the same sequence?
A: 0.4

Q: What about the “Binding of Control Serum Blood-Bank to Looped peptides” value [2] of the same sequence?
A: 0.5

Q: What about the “Binding of Control serum Blood-bank to linear peptides” value [2] of the same sequence?
A: 0.6

Q: What about the “Binding of Control serum LUMC to linear peptides” value [2] of the same sequence?
A: 0.8

Q: And the “Binding of Control serum LUMC to looped peptides” value [2]?
A: 0.5

Q: And the “Binding of a rabbit serum to linear peptides” value [3]?
A: 0.1

Q: And the “Binding of a rabbit serum to looped peptides” value [3]?
A: 0.6

Q: What does the source list for NACRIIMRCWLCWKC?
A: Binding of serum 1a to looped/cyclic peptide (PEPSCAN-ELISA) [1]: 0.6; Binding of serum 1b to looped/cyclic peptide (PEPSCAN-ELISA) [1]: 0.5; Binding of serum 2 to looped/cyclic peptide (PEPSCAN-ELISA) [1]: 0.5; Binding of serum 6 to looped/cyclic peptide (PEPSCAN-ELISA) [1]: 0.6; Binding of serum 37 to looped/cyclic peptide (PEPSCAN-ELISA) [1]: 0.5; Binding of serum 62 to looped/cyclic peptide (PEPSCAN-ELISA) [1]: 0.7; Binding of serum London to looped/cyclic peptide (PEPSCAN-ELISA) [1]: 0.3; Binding of serum SARS-green to looped/cyclic peptide (PEPSCAN-ELISA) [1]: 0.3; Binding of serum SARS-yellow to looped/cyclic peptide (PEPSCAN-ELISA) [1]: 0.4; Recognition of the peptide by sera of SARS-CoV infected individuals, and form (linear, looped/cyclic) in which it is recognized [1]: recognized in linear form; Binding of Control Serum Blood-Bank to Looped peptides [2]: 0.8; Binding of Control serum Blood-bank to linear peptides [2]: 1.0; Binding of Control serum LUMC to linear peptides [2]: 0.5; Binding of Control serum LUMC to looped peptides [2]: 0.6; Recognition of the peptide by the rabbit serum [3]: recognized

Q: For CFVLAAVYRINWVTG, which “Binding of serum 1a to linear peptides of protein M of SARS-CoV Urbani” value [1] is on record?
A: 0.8

Q: What about the “Binding of serum 1a to looped/cyclic peptides of protein M of SARS-CoV Urbani” value [1] of the same sequence?
A: 0.6

Q: And the “Binding of serum 1b to linear peptides of protein M of SARS-CoV Urbani” value [1]?
A: 0.6

Q: And the “Binding of serum 1b to looped/cyclic peptides of protein M of SARS-CoV Urbani” value [1]?
A: 0.6

Q: What about the “Binding of serum 2 to linear peptides of protein M of SARS-CoV Urbani” value [1] of the same sequence?
A: 0.6

Q: What about the “Binding of serum 2 to looped/cyclic peptides of protein M of SARS-CoV Urbani” value [1] of the same sequence?
A: 0.5

Q: What about the “Binding of serum 6 to linear peptides of protein M of SARS-CoV Urbani” value [1] of the same sequence?
A: 0.6

Q: What about the “Binding of serum 6 to looped/cyclic peptides of protein M of SARS-CoV Urbani” value [1] of the same sequence?
A: 0.8

Q: What about the “Binding of serum 37 to linear peptides of protein M of SARS-CoV Urbani” value [1] of the same sequence?
A: 0.4

Q: What about the “Binding of serum 37 to looped/cyclic peptides of protein M of SARS-CoV Urbani” value [1] of the same sequence?
A: 0.6

Q: What about the “Binding of serum 62 to linear peptides of protein M of SARS-CoV Urbani” value [1] of the same sequence?
A: 0.4

Q: What about the “Binding of serum 62 to looped/cyclic peptides of protein M of SARS-CoV Urbani” value [1] of the same sequence?
A: 0.7

Q: And the “Binding of serum London to linear peptides of protein M of SARS-CoV Urbani” value [1]?
A: 0.4

Q: And the “Binding of serum London to looped/cyclic peptides of protein M of SARS-CoV Urbani” value [1]?
A: 0.2

Q: And the “Binding of serum SARS-green to linear peptides of protein M of SARS-CoV Urbani” value [1]?
A: 0.5

Q: What about the “Binding of serum SARS-green to looped/cyclic peptides of protein M of SARS-CoV Urbani” value [1] of the same sequence?
A: 0.3

Q: What about the “Binding of serum SARS-yellow to linear peptides of protein M of SARS-CoV Urbani” value [1] of the same sequence?
A: 0.2

Q: And the “Binding of serum SARS-yellow to looped/cyclic peptides of protein M of SARS-CoV Urbani” value [1]?
A: 0.4

Q: What about the “Binding of Control Serum Blood-Bank to Looped peptides of the protein M of SARS-CoV Urbani” value [2] of the same sequence?
A: 0.6

Q: And the “Binding of Control serum Blood-bank to linear peptides of the protein M of SARS-CoV Urbani” value [2]?
A: 0.7

Q: And the “Binding of Control serum LUMC to linear peptides of the protein M of SARS-CoV Urbani” value [2]?
A: 0.6

Q: And the “Binding of Control serum LUMC to looped peptides of the protein M of SARS-CoV Urbani” value [2]?
A: 0.8

Q: What about the “Rabbit serum linear peptides” value [3] of the same sequence?
A: 0.2

Q: What about the “Rabbit serum looped peptides” value [3] of the same sequence?
A: 0.1
